SMILES strings stand for the structures. Values joined by “and” are separate entries in the source; they are usually repeats but may differ in a detail not shown here. Identical values can stand only once. “Also recorded” adds a separate entry of the source.

One molecule from PMC12010937, “Evaluation of FXR Activity in Pollutants Identified in Sewage Sludge and Subsequent in Vitro and in Vivo Characterization of Metabolic Effects of Triphenyl Phosphate” (Environmental Health Perspectives, 2025) can be followed below.

Series [1] addresses T1, FXR (pCDNA3.1-hFXR, FXRE-luc) (Homo sapiens, UniProt Q96RI1).
T1 construct: host or cells: HEK 293T
T1 sequence (Q96RI1 1-486): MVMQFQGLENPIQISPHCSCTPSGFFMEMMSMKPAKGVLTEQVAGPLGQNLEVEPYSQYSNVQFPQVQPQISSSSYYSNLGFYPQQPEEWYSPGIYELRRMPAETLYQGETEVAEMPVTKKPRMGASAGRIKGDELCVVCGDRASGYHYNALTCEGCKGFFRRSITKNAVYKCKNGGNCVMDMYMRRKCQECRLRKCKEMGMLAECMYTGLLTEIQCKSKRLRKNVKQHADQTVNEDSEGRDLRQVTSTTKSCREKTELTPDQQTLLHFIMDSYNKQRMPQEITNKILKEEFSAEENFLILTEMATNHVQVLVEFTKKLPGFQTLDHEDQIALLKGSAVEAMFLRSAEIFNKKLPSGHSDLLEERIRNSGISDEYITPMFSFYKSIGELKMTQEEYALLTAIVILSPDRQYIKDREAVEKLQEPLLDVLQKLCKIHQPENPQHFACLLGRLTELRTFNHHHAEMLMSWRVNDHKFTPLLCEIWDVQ
Nature of the series: cell-based. The series is classed as cell-based.

The test system of the next series is C57BL/6N mice. Nature of the series: Hepatic total bile acids (TBA colorimetric assay kit). The format is in vivo. As to conditions: for Hepatic TBA: individual mice. The procedure:
Male C57BL/6N mice (8 wk of age) were purchased from Beijing Vital River Laboratory Inc. and acclimated to the environment for 2 wk before they were used for experiments. The environment was maintained at 22°C, in a 12-h light/dark cycle with 50%–60% relative humidity and fed standard chow diets. Because the male mice are more sensitive to metabolic disease than female mice and the estrous cycle of female mice may induce variability to the metabolic phenotypes,[50] only male mice were used in this study. Animals were randomly assigned to control or TPHP treatment groups (five mice per group). Mice were exposed to corn oil (control) purchased from Sigma-Aldrich (C8267) or TPHP (dissolved in corn oil) at 10mg/kg or 50mg/kg body weight (BW) by daily oral gavage for 35 d. The administered volume was 5mL/kg BW. The TPHP corn oil solutions for administration were prepared by dissolving the TPHP in corn oil, and the solutions were stored at −20°C and freshly prepared each week. BW was measured every other day during the dosing period. At the end of experiments, the mice were anesthetized with isoflurane, then blood was collected from the retro-orbital sinus via orbital puncture, and then the mice were euthanized by cervical dislocation. The liver was isolated, weighted, and divided into three fractions: one fraction was fixed with 4% neutral-buffered formalin for Oil Red staining; another fraction was frozen in liquid nitrogen and stored at −80°C for the BA targeted analysis, lipidomic analysis, and qPCR analysis; the remaining fraction was embedded with 3% carboxymethylcellulose (CMC) for MSI analysis. The ileum was also isolated, weighted, and stored at −80°C for the BA targeted analysis and qRT-PCR analysis. […]
The TG level in the liver was determined using a triglyceride enzymatic assay kit (Applygen). […] The total BA level in the liver was determined using a Total Bile Acid (TBA) Colorimetric Assay Kit (Elabscience). […] Both the TG and TBA results were normalized by the protein concentration determined by bicinchoninic acid (BCA) method using a BCA kit (Applygen).

One may read the IC50 as the concentration at which inhibition is half-maximal. High values mean weaker potency in that assay, low ones greater potency in that assay. The molecule `O=P(Oc1ccccc1)(Oc1ccccc1)Oc1ccccc1` [TPHP, triphenyl phosphate] gave a concentration for half-maximal inhibition (IC50) in series [1] of 27.4 µM. For the same molecule, the “Relative luciferase activity (%)” value was 85.51% and 90.10% and 106.89% in series [1] (0.01 μM, dose-response, replicates); 104.74% and 89.81% in series [1] (0.1 μM, dose-response, replicates); 73.91% and 74.66% in series [1] (0.5 μM, dose-response, replicates); 77.48% and 70.96% in series [1] (1 μM, dose-response, replicates); 51.88% and 54.98% and 76.88% in series [1] (5 μM, dose-response, replicates); 2.5% and 7.4% and 17.9% in series [1] (10 μM compound in the presence of 50 μM CDCA, DMSO 0%, 50 μM CDCA 100%, HEK 293T, replicates). For the same molecule, the “Relative luciferase activity (%)” value in series [1] (10 μM, dose-response, replicates) is 46.34% and 52.21%; in series [1] (25 μM compound in the presence of 50 μM CDCA, DMSO 0%, 50 μM CDCA 100%, HEK 293T, replicates), -6.4% and -7.6% and -3.9%; in series [1] (25 μM, dose-response, replicates), 2.58% and 9.91% and 5.01%; in series [1] (50 μM, dose-response, replicates), -21.44% and -22.90% and -18.55%. Also, the “Luciferase activity compared with DMSO control (in words)” value in series [1] (10 μM and 25 μM, in the presence of 50 μM CDCA, HEK 293T) is “significantly less luciferase activity; also recorded: lowest luciferase activity”. Besides, the “Rate of FXR inhibition at the maximum exposure concentration” value in series [1] (HEK 293T DLR assay, maximum exposure concentration) amounted to 120.96%. Moreover, the activity at 0.1 µM in series [1] (HEK-293T, read-out: Relative luciferase activity (%), 0.1 μM, dose-response, replicates) is 87.5%. Also, the activity at 0.5 µM in series [1] (HEK-293T, read-out: Relative luciferase activity (%), 0.5 μM, dose-response, replicates) was determined as 82.3%. Besides, the activity at 1 µM in series [1] (HEK-293T, read-out: Relative luciferase activity (%), 1 μM, dose-response, replicates) amounted to 63.9%. Further, in series [1] (HEK-293T, read-out: Relative luciferase activity (%), 10 μM, dose-response, replicates), the activity at 10 µM is 39.7%. For the same molecule, in the series on C57BL/6N mice (TPHP-H group, 35 d of exposure), the “Increase of total BA concentration in the liver relative to the control group” value was 2 fold. Moreover, the “Hepatic TBA” value in the series with C57BL/6N mice (TPHP-H: 50 mg/kg daily oral gavage 35 d) was 2.67 µmol/g and 2.92 µmol/g and 2.08 µmol/g; in the series with C57BL/6N mice (TPHP-L: 10 mg/kg daily oral gavage 35 d), 1.89 µmol/g and 1.55 µmol/g and 1.58 µmol/g.
